Molecular target: T1, Rtt109–Vps75 (Saccharomyces cerevisiae, UniProt Q07794)
T1 sequence (Q07794 1-436): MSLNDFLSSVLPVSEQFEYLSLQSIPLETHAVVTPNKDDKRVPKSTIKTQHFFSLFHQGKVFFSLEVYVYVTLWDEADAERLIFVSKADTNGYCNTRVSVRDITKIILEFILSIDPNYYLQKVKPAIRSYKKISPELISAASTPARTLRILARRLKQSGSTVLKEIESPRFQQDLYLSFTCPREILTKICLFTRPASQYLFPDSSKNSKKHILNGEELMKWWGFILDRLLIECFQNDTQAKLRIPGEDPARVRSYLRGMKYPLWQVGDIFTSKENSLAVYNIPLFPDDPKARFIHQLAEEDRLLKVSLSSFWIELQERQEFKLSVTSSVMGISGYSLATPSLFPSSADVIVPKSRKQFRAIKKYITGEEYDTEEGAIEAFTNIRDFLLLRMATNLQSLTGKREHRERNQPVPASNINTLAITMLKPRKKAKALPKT
T1 sequence (P53853 1-264 partner): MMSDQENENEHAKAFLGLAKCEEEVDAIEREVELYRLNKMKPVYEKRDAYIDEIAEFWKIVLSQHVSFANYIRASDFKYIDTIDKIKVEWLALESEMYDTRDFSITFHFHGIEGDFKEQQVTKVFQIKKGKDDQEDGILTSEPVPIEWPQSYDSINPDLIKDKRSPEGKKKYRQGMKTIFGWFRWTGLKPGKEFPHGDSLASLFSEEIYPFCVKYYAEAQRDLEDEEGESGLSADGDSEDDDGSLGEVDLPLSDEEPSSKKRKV
Experiment: in vitro [3H]-acetyl-CoA HAT assay, Rtt109–Vps75
Type: biochemical, yeast
Settings: radiolabeled HAT assay; p = 0.61, n = 3 for 1a

**Q.** `CCN(CC)c1ccc2c(C)c(-c3ccc(N4C(=O)C=CC4=O)cc3)c(=O)oc2c1` [CPM, N-[4-(7-diethylamino-4-methylcoumarin-3-yl)phenyl]maleimide] was tested. Which “difference in IC50 values in presence or absence of DTT and BSA” value did it give?
**A.** significant decrease in IC50

Reference: PMC6002837 (Bioorganic & medicinal chemistry letters, 2015)
